Results taken from patent US20040044008A1, “Use of therapeutic benzamide derivatives” (priority 2000, published 2004).

SMILES	melting point [°C]
COc1ccc(-c2ccccc2C(=O)Nc2ccc(N3CCN(Cc4cccc(C#N)c4)CC3)cc2)cc1	124 to 128
Cc1ccc(-c2ccccc2C(=O)Nc2ccc(N3CCN(Cc4cccc(C#N)c4)CC3)cc2)cc1C	140 to 144
Cc1ccc(-c2ccccc2C(=O)Nc2ccc(N3CCN(Cc4cccc(C#N)c4)CC3)cc2)c(C)c1	72 to 76
O=C(Nc1ccc(N2CCN(Cc3ccncc3)CC2)cc1)c1ccccc1-c1ccc(C(F)(F)F)cc1	194 to 196
N#Cc1cccc(CN2CCN(c3ccc(NC(=O)c4ccccc4-c4ccccc4)cc3)CC2)c1 (hydrate or solvate) [Example 11, Biphenyl-2-carboxylic acid [4-[4-(3-cyano-benzyl)-piperazin-1-yl]-phenyl]-amide]	169 to 171
N#Cc1cccc(CN2CCN(c3ccc(NC(=O)c4ccccc4Oc4ccccc4)cc3)CC2)c1 (hydrate or solvate) [Example 14, N-[4-[4-(3-Cyano-benzyl)-piperazin-1-yl]-phenyl]-2-phenoxy-benzamide]	133 to 134
COc1cccc(CN2CCN(c3ccc(NC(=O)c4ccccc4-c4ccc(C(F)(F)F)cc4)cc3)CC2)c1 (hydrate or solvate) [Example 51, 4′-Trifluoromethyl-biphenyl-2-carboxylic acid [4-[4-(3-methoxy-benzyl)-piperazin-1-yl]-phenyl]-amide]	168 to 170
O=C(Nc1ccc(N2CCN(Cc3cccc(F)c3)CC2)cc1)c1ccccc1-c1ccc(C(F)(F)F)cc1 (hydrate or solvate) [Example 53, 4′-Trifluoromethyl-biphenyl-2-carboxylic acid [4-[4-(3-fluoro-benzyl)-piperazin-1-yl]-phenyl]-amide]	189 to 190.5
O=C(Nc1ccc(N2CCN(Cc3ccccn3)CC2)cc1)c1ccccc1-c1ccc(C(F)(F)F)cc1 (hydrate or solvate) [Example 57, 4′-Trifluoromethyl-biphenyl-2-carboxylic acid [4-(4-pyridin-2-ylmethyl-piperazin-1-yl)-phenyl]-amide]	168 to 170
O=C(Nc1ccc(N2CCN(Cc3nccs3)CC2)cc1)c1ccccc1-c1ccc(C(F)(F)F)cc1 (hydrate or solvate) [Example 59, 4′-Trifluoromethyl-biphenyl-2-carboxylic acid [4-(4-thiazol-2-ylmethyl-piperazin-1-yl)-phenyl]-amide]	187 to 189
CC(C)c1ccc(-c2cc(Cl)ccc2C(=O)Nc2ccc(N3CCN(Cc4cccc(C#N)c4)CC3)cc2)cc1 [Example 7, 5-Chloro-4′-isopropyl-biphenyl-2-carboxylic acid [4-[4-(3-cyano-benzyl)-piperazin-1-yl]-phenyl]-amide]	188 to 190
COc1cccc(C(=O)Nc2ccc(N3CCN(Cc4cccc(C#N)c4)CC3)cc2)c1-c1ccc(C(F)(F)F)cc1 [Example 8, 6-Methoxy-4′-trifluoromethyl-biphenyl-2-carboxylic acid [4-[4-(3-cyano-benzyl)-piperazin-1-yl]-phenyl]-amide]	215 to 217
Cc1ccc(C(=O)Nc2ccc(N3CCN(Cc4cccc(C#N)c4)CC3)cc2)c(-c2ccc(C(F)(F)F)cc2)c1 [Example 9, 5-Methyl-4′-trifluoromethyl-biphenyl-2-carboxylic acid [4-[4-(3-cyano-benzyl)-piperazin-1-yl]-phenyl]-amide]	166 to 168
N#Cc1cccc(CN2CCN(c3ccc(NC(=O)c4ccc(Cl)cc4-c4ccc(C(F)(F)F)cc4)cc3)CC2)c1 [Example 10, 5-Chloro-4′-trifluoromethyl-biphenyl-2-carboxylic acid [4-[4-(3-cyano-benzyl)-piperazin-1-yl]-phenyl]-amide]	164 to 165
COc1ccc(C(=O)Nc2ccc(N3CCN(Cc4cccc(C#N)c4)CC3)cc2)c(-c2ccccc2)c1 [Example 12, 5-Methoxy-biphenyl-2-carboxylic acid [4-[4-(3-cyano-benzyl)-piperazin-1-yl]-phenyl]-amide]	159 to 161
CC(C)c1ccc(-c2ccccc2C(=O)Nc2ccc(N3CCN(Cc4cccc(C#N)c4)CC3)cc2)cc1 [Example 16, 4′-Isopropyl-biphenyl-2-carboxylic acid [4-[4-(3-cyano-benzyl)-piperazin-1-yl]-phenyl]-amide]	133 to 135
COc1ccc(C(=O)Nc2ccc(N3CCN(Cc4cccc(C#N)c4)CC3)cc2)c(-c2ccc(C(F)(F)F)cc2)c1 [Example 17, 5-Methoxy-4′-trifluoromethyl-biphenyl-2-carboxylic acid [4-[4-(3-cyano-benzyl)-piperazin-1-yl]-phenyl]-amide]	160 to 164
Cc1ccc(-c2ccc(C(F)(F)F)cc2)c(C(=O)Nc2ccc(N3CCN(Cc4cccc(C#N)c4)CC3)cc2)c1 [Example 18, 4-Methyl4′-trifluoromethyl-biphenyl-2-carboxylic acid [4-[4-(3-cyano-benzyl)-piperazin-1-yl]-phenyl]-amide]	120 to 124
COc1ccc(-c2ccc(C(F)(F)F)cc2)c(C(=O)Nc2ccc(N3CCN(Cc4cccc(C#N)c4)CC3)cc2)c1 [Example 19, 4-Methoxy-4′-trifluoromethyl-biphenyl-2-carboxylic acid [4-[4-(3-cyano-benzyl)-piperazin-1-yl]-phenyl]-amide]	151 to 155
CCc1ccc(-c2ccccc2C(=O)Nc2ccc(N3CCN(Cc4cccc(C#N)c4)CC3)cc2)cc1 [Example 20, 4′-Ethyl-biphenyl-2-carboxylic acid [4-[4-(3-cyano-benzyl)-piperazin-1-yl]-phenyl]-amide]	118 to 122
N#Cc1cccc(CN2CCN(c3ccc(NC(=O)c4ccccc4-c4cccc(C(F)(F)F)c4)cc3)CC2)c1 [Example 22, 3′-Trifluoromethyl-biphenyl-2-carboxylic acid [4-[4-(3-cyano-benzyl)-piperazin-1-yl]-phenyl]-amide]	117 to 121
N#Cc1cccc(CN2CCN(c3ccc(NC(=O)c4ccccc4-c4ccc(F)cc4)cc3)CC2)c1 [Example 23, 4′-Fluoro-biphenyl-2-carboxylic acid [4-[4-(3-cyano-benzyl)-piperazin-1-yl]-phenyl]-amide]	200 to 202
COc1ccc(-c2ccccc2C(=O)Nc2ccc(N3CCN(Cc4cccc(C#N)c4)CC3)cc2)cc1OC [Example 26, 3′,4′-Dimethoxy-biphenyl-2-carboxylic acid [4-[4-(3-cyano-benzyl)-piperazin-1-yl]-phenyl]-amide]	116 to 120
COc1cccc(C(=O)Nc2ccc(N3CCN(Cc4cccc(C#N)c4)CC3)cc2)c1OCc1ccc(F)cc1 [Example 29, N-[4-[4-(3-Cyano-benzyl)-piperazin-1-yl]-phenyl]-2-(4-fluoro-benzyloxy)-3-methoxy-benzamide]	118 to 120
COc1cccc(C(=O)Nc2ccc(N3CCN(Cc4cccc(C#N)c4)CC3)cc2)c1OCCc1ccccc1 [Example 30, N-[4-[4-(3-Cyano-benzyl)-piperazin-1-yl]-phenyl]-3-methoxy-2-phenethyloxy-benzamide]	140 to 142
COc1cccc(C(=O)Nc2ccc(N3CCN(Cc4cccc(C#N)c4)CC3)cc2)c1OCCC1CCCCC1 [Example 31, N-[4-[4-(3-Cyano-benzyl)-piperazin-1-yl]-phenyl]-2-(2-cyclohexyl-ethoxy)-3-methoxy-benzamide]	102 to 104
